Assay [1] deals with ZIKV mosquito strain MEX 2-81 (2016/Mexico). Kind of assay: Plaque reduction inhibition assay in Vero E6 cells, ZIKV MEX 2-81. The class given is cell-based, Zika virus (ZIKV). The text has this:
(§1) Vero E6 and LLC-MK2 cells were maintained in Dulbecco's Modified Eagle Medium (DMEM) supplemented with 8% fetal bovine serum (FBS) and penicillin and streptomycin (P/S). C6/36 cells were maintained in Eagle's Minimal Essential Medium (EMEM) supplemented with 5% FBS and P/S. ZIKV strains, including human strains PAN2016 (2016/Panama), R116265 (2016/Mexico), PAN2015 (2015/Panama), FLR (2015/Colombia), R103451 (2015/Honduras), PRVABC59 (2015/Puerto Rico), PLCal_ZV (2013/Thailand), and IbH 30656 (1968/Nigeria), mosquito strain MEX 2-81 (2016/Mexico), and rhesus macaque strain MR 766 (1947/Uganda), were used in the studies. These ZIKV strains were cultured in Vero E6 cells, and viral titers were detected by a standard plaque-forming assay. DENV human strains, including type 1: DENV-1-V1792 (2007/Vietnam), type 2: DENV-2-V594 (2006/Puerto Rico), type 3: DENV-3-V1043 (2006/Puerto Rico), and type 4: DENV-4-PR 06-65-740 (2006/Puerto Rico), were cultured in C6/36 cells, and the viral titers were determined by plaque-forming assay as described above.
(§2) A plaque reduction inhibition assay was carried out to measure the inhibitory activity of Z-medicaments against infections of ZIKV and DENV. […] The compound-virus mixtures were then transferred to Vero E6 cells (10^5/well) and incubated at 37° C. for 1 h. […] The cells were washed thoroughly with PBS, and overlaid with DMEM containing 1% carboxymethyl cellulose and 2% FBS, followed by in vitro culture at 37° C. for 4-5 days and then staining with 0.5% crystal violet.
(§3) After removal of the unbound compounds by centrifugation after addition of 3% PEG-6000, ZIKV was incubated with Vero E6 cells at 37° C. for 1 h. The cells were then washed with PBS, overlaid with DMEM containing 1% carboxymethyl cellulose and 2% FBS, and cultured at 37° C. for 4-5 days, followed by staining with 0.5% crystal violet.

Assay [2] has as its system ZIKV human strain PAN2015 (2015/Panama). Kind of assay: microbe, parasite or virus in culture. The class given is cell-based, Zika virus (ZIKV). The conditions noted are these: Vero E6 cells.
Excerpt: as §1, §2, §3

For assay [3], the system named is ZIKV human strain IbH 30656 (1968/Nigeria). The experiment in a line: Plaque reduction inhibition assay in Vero E6 cells, ZIKV IbH 30656. Type of assay: cell-based, Zika virus (ZIKV). Here is the method:
A plaque reduction inhibition assay was carried out to measure the inhibitory activity of Z-medicaments against infections of ZIKV and DENV. […] The compound-virus mixtures were then transferred to Vero E6 cells (10^5/well) and incubated at 37° C. for 1 h.

For another assay, the target named is T1, ZIKV NS2B-NS3 protease (Zika virus, UniProt Q32ZE1).
T1 construct: 49-97) and NS2 protein (residues 1-185) through a covalent; made in house; host or cells: E. coli
Kind of assay: Fluorescence-based inhibition of NS2B-NS3 protease activity. The class given is biochemical. The following applies: substrate Bz-Nle-Lys-Lys-Arg-AMC 4 μM, protein 1 μg/ml. Here is the method:
Binding of compounds (NPs) to ZIKV full-length E (FIG. 3A), EDIII (FIG. 3B), and NS2B-NS3 (FIG. 3C) proteins, was detected by ELISA. The percent binding was reported in the presence or absence of serially diluted NPs using the formula (1-[E/EDIII-NP]/[E/EDIII])×100 (for E/EDIII binding) or (1-[NS2B-NS3-NP]/[NS2B-NS3])×100 (for NSEB-NS3 binding). […] The concentrations of ZIKV EDIII and mAbs were 1.5 and 0.5 μg/ml, respectively. […] The concentrations of substrate (Bz-Nle-Lys-Lys-Arg-AMC) and ZIKV NS2B-NS3 protein were 4 μM and 1 μg/ml, respectively. The percent inhibition of protease activity was calculated in the presence or absence of serially diluted compounds using the formula (1-[NS2B-NS3-substrate-NP]/[NS2B-NS3-substrate])×100. The IC50 values were calculated based on the percent inhibition. The data are expressed as mean±s.e.m. (n=4).

The structures appear in SMILES notation. Read-outs that look alike come from different tables or passages of the source.

On to `Cc1cc2c(C(C)C)c(O)c(O)c(C=O)c2c(O)c1-c1c(C)cc2c(C(C)C)c(O)c(O)c(C=O)c2c1O` [Gossypol, gossypol], for which the IC50 came to 2.79 ± 0.01 µM in assay [1] (Zika virus, Vero C1008, read-out: IC50 against ZIKV strain MEX 2-81) and 2.93 ± 0.01 µM in assay [1] (Zika virus, Vero C1008, read-out: ZIKV strains IC50, MEX 2-81).
With `C[C@@H]1CC[C@@]2(OC1)O[C@H]1[C@@H](O)[C@H]3[C@@H]4CC[C@H]5C[C@@H](O[C@@H]6O[C@H](CO)[C@H](O[C@@H]7O[C@H](CO)[C@@H](O)[C@H](O[C@@H]8OC[C@@H](O)[C@H](O)[C@H]8O)[C@H]7O[C@@H]7O[C@H](CO)[C@H](O)[C@H](O[C@@H]8O[C@H](CO)[C@@H](O)[C@H](O)[C@H]8O)[C@H]7O)[C@H](O)[C@H]6O)[C@H](O)C[C@]5(C)[C@H]4CC[C@]3(C)[C@H]1[C@@H]2C` [Digitonin, digitonin], the IC50 in assay [2] (Zika virus, Vero C1008, Table 1, read-out: IC50 against ZIKV strain PAN2015) was found to be 5 ± 0.01 µM; in assay [3] (Zika virus, Vero C1008, Table 1, read-out: IC50 against ZIKV strain IbH 30656) it was 5.3 ± 0.13 µM.
Regarding `COc1cc(/C=C/C(=O)CC(=O)/C=C/c2ccc(O)c(OC)c2)ccc1O` [Curcumin, curcumin], the “Inhibition of NS2B-NS3 protease activity (in words)” value at ZIKV NS2B-NS3 protease was “low inhibitory activity”.
With `Cc1cc2c(C(C)C)c(O)c(O)c(/C=N/n3c(=O)[nH][nH]c3=O)c2c(O)c1-c1c(C)cc2c(C(C)C)c(O)c(O)c(/C=N/n3c(=O)[nH][nH]c3=O)c2c1O` [ST087010], the IC50 worked out at 2.92 ± 0.25 µM in assay [1] (Vero E6 cells, Table 7, gossypol derivatives, read-out: ZIKV strains IC50, MEX 2-81); 3.5 ± 0.06 µM in assay [2] (Table 7, gossypol derivatives, read-out: ZIKV strains IC50, PAN2015); 2.94 ± 0.08 µM in assay [3] (Table 7, gossypol derivatives, read-out: ZIKV strains IC50, IbH 30656); 4.84 µM on ZIKV NS2B-NS3 protease (read-out: IC50, inhibition of ZIKV NS2B-NS3 protease cleavage).

What is called IC50 is the concentration that gives 50% inhibition.

Source of the values: patent publication US20220313651A1, “INHIBITORS OF ZIKA VIRUS INFECTION” (priority 2019, published 2022).
